Data taken from patent publication US20040087792A1, “Tryptase-inhibitors” (priority 2001, published 2004).
Structures can show the parent of a compound that is named as a salt.

Biological target: human tryptase
Assay: Inhibition of human tryptase (equilibrium, chromogenic substrate tos-Gly-Pro-arg-pNA)
Format: biochemical
Details: in the presence of substrate; heparin 0.1-50 μg/ml; cleavage monitored at 405 nm; read-out: Klapp (apparent dissociation constant Kiapp)
Description: The documented pathophysiological effects of mast cell tryptase are caused directly by the enzymatic activity of the protease. Accordingly, they are reduced or blocked by inhibitors which inhibit the enzymatic activity of the tryptase. A suitable measure for the affinity of a reversible inhibitor to the target protease is the equilibrium dissociation constant Ki of the enzyme-inhibitor complex. This Ki value can be determined via the effect of the inhibitor on the tryptase-induced cleavage of a chromogenic peptide-p-nitroanilide substrate or a fluorogenic peptide-aminomethylcoumarin substrate.
The dissociation constants for the tryptase-inhibitor complexes are determined under equilibrium conditions in accordance with the general proposals of Bieth (Bieth J G, Pathophysiological Interpretation of kinetic constants of protease inhibitors, Bull. Europ. Physiopath. Resp. 16:183-195, 1980) and the methods of Sommerhoff et al. (Sommerhoff C P et al., A Kazal-type inhibitor of human mast cell tryptase: Isolation from the medical leech Hirudo medicinalis, characterization, and sequence analysis, Biol. Chem. Hoppe-Seyler 375: 685-694, 1994).
Human tryptase is isolated from lung tissue or prepared recombinantly; the specific activity of the protease, determined by titration, is usually greater than 85% of the theoretical value. […]

| Compound | Ki |
| --- | --- |
| CCOC(=O)CN(CCNC(=O)OCC#Cc1ccc(C#CCOC(=O)NCCN(CC(=O)OCC)C(=O)CCc2ccc(CN)cc2)cc1)C(=O)CCc1ccc(CN)cc1 [Compound 1, 1,4-Bis-{N-[3-(4-aminomethyl-phenyl)-propionyl]-N-(ethoxycarbonyl-methyl)-amino-3-(ethyl-aminocarbonyloxy)-prop-1-ynyl}-benzene dihydrochloride] | 35 nM |
| CCOC(=O)CN(CCNC(=O)OCC#CCOC(=O)NCCN(CC(=O)OCC)C(=O)CCc1ccc(CN)cc1)C(=O)CCc1ccc(CN)cc1 [Compound 3, 1,4-Bis{N-[3-(4-(aminomethyl-phenyl)-propionyl]-N-(ethoxycarbonyl-methyl)-amino-3-(ethyl-aminocarbonyloxy)}-2-butynedihydrochloride] | 5.4 nM |
